For orientation: pIC50 means −log10 of the IC50, conventionally taken in molar units.

SMILES strings stand for the structures. pIC50: −log10 of the molar value.

For 1 compound, IC50 results are on record in article PMC6071666 (Bioorganic & medicinal chemistry, 2018).

The experiment concerns the target LSD1 (Homo sapiens, UniProt O60341). The experiment is described as follows: in vitro demethylation of H3K4me2 peptide by GST-LSD1, mass spectrometry readout. Type of experiment: biochemical.

In the case of `CC(C)(C)OC(=O)NC1CC1c1ccc(OC(=O)OC(C)(C)C)cc1` (stereo not shown) [compound 3, tert-butyl 2-(4-(tert-butoxycarbonyloxy)phenyl)cyclopropylcarbamate], the pIC50 is ~4.67.
